In experiment [1] the test system is MAC formation in normal human serum. Description: Human serum MAC formation assay (zymosan-coated plates, 50% normal human serum). The note with it: 50% normal human serum with EGTA, 37° C. 30 minutes. Here is the method:
MAC deposition assay using normal human serum was applied to evaluate compound potency under physiologically relevant conditions. Black Maxisorp plates (Thermo Fisher, 437111) were coated with preactivated zymosan (Complement Technology, B400) at 0.5 mg/mL in carbonate buffer (pH 9.5, Sigma, C3041) at room temperature overnight. Compounds were serial diluted 3-fold in 100% DMSO for a 10-point dose-response curve. Normal human serum (Complement Technology, NHS) was diluted to 50% (v/v) with the gelatin buffer (4.2 mM HEPES pH 7.4, 0.15 mM CaCl2, 141 mM NaCl, 4.5 mM MgCl2, 0.1% gelatin) containing 20 mM EGTA or 20 mM EDTA. In conical bottom 96-well plates, 1 μL compound and 99 μL of serum-EGTA were mixed. Serum-EDTA was used as baseline control. The serum-compound mixture was incubated at room temperature for 15 minutes before being transferred to the washed zymosan plate for complement activation at 37° C. for 30 minutes. The reaction was terminated by decanting the reaction mixture and adding blocking buffer (Thermo Fisher, 37539) for 20 minutes. MAC formation on the ELISA plate was detected using 0.2 μg/mL mouse anti-human C9 neoepitope monoclonal antibody (Thermo Fisher, MA5-33373) diluted in phosphate-buffered saline with 0.05% Tween-20 (PBST). A goat anti-mouse IgG-HRP antibody (Thermo Fisher, A16072) was used at 1:2000 in PBST as secondary antibody. After washing, the reaction was developed using QuantaBlu (Thermo Fisher, 15169) for 20 minutes at room temperature. The plates were read at 325 nm excitation and 420 nm emission wavelengths. Percent inhibition values were generated using the baseline (EDTA-serum) and the maximum control (EGTA-serum). An IC50 for each compound was calculated using 4-parameter logistic regression.

In a further experiment the target is human C3bBb (Homo sapiens (Human), UniProt P00751). Description: Human C3bBb enzyme assay (C3a generation from C3, ELISA). In kind it is biochemical. The note with it: read-out: Human C3b:Bb IC50 Avg. On the procedure: Compounds disclosed herein were evaluated for their potency to inhibit human C3bBb in a biochemical assay. To generate active C3bBb complex in vitro, purified human C3b (Complement Technology, A114), CFB (Complement Technology, A135) and CFD (Complement Technology, A136) were mixed in a 1:1:1 ratio to a final concentration of 1 μM each in the C3bBb assay buffer (PBS pH 7.4, 100 μM NiCl2, 0.05% (w/v) CHAPS). The reaction mix was incubated at room temperature for 30 minutes on a rotating platform. […] On the day of the enzyme assay, a reaction mixture containing 3 nM C3bBb complex and 1 μM purified human C3 (Complement Technology, A113) was prepared in the C3bBb assay buffer. Compounds were serial diluted 3-fold in 100% DMSO for a 10-point dose-response curve. A 0.5 μL aliquot of diluted compound solution was transferred to a conical bottom 96-well plate, before 49.5 μL of the reaction mix was added to each well to initiate the reaction. The plate was incubated for 1 hour at room temperature. […] The generation of C3a from C3 by the C3bBb complex was measured using the MicroVue C3a Plus EIA ELISA kit (Quidel, A031). The concentration of C3a from each well was calculated using a standard curve. Percent inhibition values were generated using the baseline (C3 only) and the maximum control (DMSO instead of compound), and IC50 of each compound was calculated using 4-parameter logistic regression.
human C3bBb, sequence (P00751 260-764): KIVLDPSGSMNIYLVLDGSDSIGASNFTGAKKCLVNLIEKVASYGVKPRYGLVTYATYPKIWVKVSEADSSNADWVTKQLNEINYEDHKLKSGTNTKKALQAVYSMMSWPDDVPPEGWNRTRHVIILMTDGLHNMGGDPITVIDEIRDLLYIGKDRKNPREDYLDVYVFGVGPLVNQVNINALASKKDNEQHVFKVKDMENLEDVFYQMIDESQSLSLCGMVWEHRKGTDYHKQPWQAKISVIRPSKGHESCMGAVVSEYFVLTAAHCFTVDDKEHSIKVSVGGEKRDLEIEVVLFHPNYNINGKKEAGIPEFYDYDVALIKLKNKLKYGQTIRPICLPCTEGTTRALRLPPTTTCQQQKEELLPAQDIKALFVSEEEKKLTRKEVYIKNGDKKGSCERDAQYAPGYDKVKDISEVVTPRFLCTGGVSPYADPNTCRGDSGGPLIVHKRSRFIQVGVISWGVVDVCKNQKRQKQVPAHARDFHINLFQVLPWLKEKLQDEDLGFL
human C3bBb, sequence (P01024 23-667 partner): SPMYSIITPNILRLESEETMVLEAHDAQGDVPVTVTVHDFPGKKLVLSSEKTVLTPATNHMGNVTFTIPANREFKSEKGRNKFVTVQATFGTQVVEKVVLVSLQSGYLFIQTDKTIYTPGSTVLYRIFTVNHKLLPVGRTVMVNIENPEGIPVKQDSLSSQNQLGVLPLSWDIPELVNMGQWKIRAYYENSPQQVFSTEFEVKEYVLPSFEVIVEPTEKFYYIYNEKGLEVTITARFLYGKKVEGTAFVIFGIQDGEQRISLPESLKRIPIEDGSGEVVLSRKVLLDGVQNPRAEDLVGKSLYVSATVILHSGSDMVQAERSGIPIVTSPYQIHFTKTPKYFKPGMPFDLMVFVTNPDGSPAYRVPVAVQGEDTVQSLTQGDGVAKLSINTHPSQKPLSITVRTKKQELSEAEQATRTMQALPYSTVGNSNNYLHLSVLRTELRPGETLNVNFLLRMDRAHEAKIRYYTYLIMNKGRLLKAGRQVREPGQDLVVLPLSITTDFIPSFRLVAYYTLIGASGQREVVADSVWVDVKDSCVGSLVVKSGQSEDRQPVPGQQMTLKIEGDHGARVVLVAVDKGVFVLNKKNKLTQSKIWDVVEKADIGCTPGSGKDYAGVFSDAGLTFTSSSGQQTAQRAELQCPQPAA
human C3bBb, sequence (P01024 749-1663 partner): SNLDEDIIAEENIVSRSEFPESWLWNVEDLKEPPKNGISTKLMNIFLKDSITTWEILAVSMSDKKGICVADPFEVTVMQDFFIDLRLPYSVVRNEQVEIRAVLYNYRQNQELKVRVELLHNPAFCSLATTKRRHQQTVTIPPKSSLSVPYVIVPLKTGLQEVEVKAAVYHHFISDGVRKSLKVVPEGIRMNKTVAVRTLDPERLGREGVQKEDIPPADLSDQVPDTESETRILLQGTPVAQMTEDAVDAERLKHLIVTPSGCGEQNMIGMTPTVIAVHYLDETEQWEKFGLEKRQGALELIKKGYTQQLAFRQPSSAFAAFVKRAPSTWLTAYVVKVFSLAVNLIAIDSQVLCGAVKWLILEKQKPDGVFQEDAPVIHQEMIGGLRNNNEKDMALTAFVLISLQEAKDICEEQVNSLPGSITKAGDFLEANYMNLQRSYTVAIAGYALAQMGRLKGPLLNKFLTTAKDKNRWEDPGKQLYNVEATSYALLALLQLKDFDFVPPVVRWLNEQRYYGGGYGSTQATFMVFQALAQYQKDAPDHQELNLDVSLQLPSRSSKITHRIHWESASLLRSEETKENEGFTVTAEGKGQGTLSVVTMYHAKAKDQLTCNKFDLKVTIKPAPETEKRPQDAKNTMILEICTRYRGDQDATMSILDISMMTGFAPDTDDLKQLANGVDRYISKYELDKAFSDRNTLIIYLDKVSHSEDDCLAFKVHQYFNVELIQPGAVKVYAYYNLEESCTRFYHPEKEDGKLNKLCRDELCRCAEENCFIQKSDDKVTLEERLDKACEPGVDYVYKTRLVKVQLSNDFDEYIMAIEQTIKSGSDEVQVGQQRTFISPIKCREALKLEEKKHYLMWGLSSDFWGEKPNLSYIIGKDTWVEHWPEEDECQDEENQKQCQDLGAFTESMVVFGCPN

[2] abbreviates: starred values: assay conducted with 1 nM C3b:Bb enzyme.
[3] abbreviates: 3 nM C3bBb complex, 1 μM human C3, 1 hour room temperature.

This passage reports IC50 results from patent US20250289804A1, “SUBSTITUTED INDOLE COMPOUNDS AND METHODS OF USE THEREOF” (NOVARTIS PHARMA AG, priority 2021, published 2025).

Like-named read-outs stand apart in the source and are kept apart here.

Regarding `COc1cc(C)c2[nH]ccc2c1CN1CC[C@]2(C[C@H]1c1ccc(C(=O)O)cc1)C[C@@H](O)C2` (stereo in doubt) [Example 64, 4-((2R,4s,6S)-4-(2-hydroxy-7-((5-methoxy-7-methyl-1H-indol-4-yl)methyl)-7-azaspiro[3.5]nonan-6-yl)benzoic acid and 4-((2S,4r,6S)-2-hydroxy-7-((5-methoxy-7-methyl-1H-indol-4-yl)methyl)-7-azaspiro[3.5]nonan-6-yl)benzoic acid], the IC50 in experiment [1] fell in the range of 200 to 300 nM; on human C3bBb (setting [2]), 10 to 25 nM.
For `COc1cc(C)c2[nH]ccc2c1CN1CC[C@H](NCC(F)(F)F)C[C@H]1c1ccc(C(=O)O)cc1` [Example 15, 4-((2S,4S)-1-((5-methoxy-7-methyl-1H-indol-4-yl)methyl)-4-((2,2,2-trifluoroethyl)amino)piperidin-2-yl)benzoic acid], in that order: less than 100 nM and less than 10 nM.
For `COc1cc(C)c2[nH]ccc2c1CN1CC[C@H](N2CC(F)C2)C[C@H]1c1ccc(C(=O)O)cc1` [Example 80, 4-((2S,4S)-4-(3-fluoroazetidin-1-yl)-1-((5-methoxy-7-methyl-1H-indol-4-yl)methyl)piperidin-2-yl)benzoic acid], the IC50 was in the range of 200 to 300 nM in experiment [1] and 25 to 50 nM on human C3bBb (setting [2]).
Consider `COc1cc(C)c2[nH]ccc2c1CN1CC[C@H](NC2COC2)C[C@H]1c1ccc(C(=O)O)cc1` [Example 18, 4-((2S,4S)-1-((5-methoxy-7-methyl-1H-indol-4-yl)methyl)-4-(oxetan-3-ylamino)piperidin-2-yl)benzoic acid], for which the values for the IC50 (in experiment [1]; on human C3bBb (setting [2])) were 100 to 200 nM and less than 10 nM, respectively.
Regarding `COc1cc(C)c2[nH]ccc2c1CN1CC2(CCCC2)C1c1ccc(C(=O)O)cc1` (racemic) [Example 39, (±)-4-(2-((5-methoxy-7-methyl-1H-indol-4-yl)methyl)-2-azaspiro[3.4]octan-1-yl)benzoic acid], the IC50 in experiment [1] is 300 to 500 nM; at human C3bBb (setting [3]), greater than 100 nM.
As for `COc1cc(C)c2[nH]ccc2c1CN1CC[C@]2(C[C@H]1c1ccc(C(=O)O)cc1)C[C@@H](OC(F)F)C2` (single isomer, unassigned) [Example 57, 4-((2R,4s,6S)-2-(difluoromethoxy)-7-((5-methoxy-7-methyl-1H-indol-4-yl)methyl)-7-azaspiro[3.5]nonan-6-yl)benzoic acid or 4-((2S,4r,6S)-2-(difluoromethoxy)-7-((5-methoxy-7-methyl-1H-indol-4-yl)methyl)-7-azaspiro[3.5]nonan-6-yl)benzoic acid], the IC50 was less than 100 nM in experiment [1] and less than 10 nM on human C3bBb (setting [2]).
With `COc1cc(C)c2[nH]ccc2c1CN1CC[C@H](CC2CC2)C[C@H]1c1ccc(C(=O)O)cc1` [Example 44, 4-((2S,4S)-4-(cyclopropylmethyl)-1-((5-methoxy-7-methyl-1H-indol-4-yl)methyl)piperidin-2-yl)benzoic acid], the IC50 in experiment [1] was less than 100 nM; at human C3bBb (setting [2]) it was less than 10 nM.
`COc1cc(C)c2[nH]ccc2c1CN1CC2(CCC2)[C@H]1c1ccc(C(=O)O)cc1` [Example 40, (R)-4-(2-((5-methoxy-7-methyl-1H-indol-4-yl)methyl)-2-azaspiro[3.3]heptan-1-yl)benzoic acid]: the IC50 in experiment [1] is 300 to 500 nM; on human C3bBb (setting [3]) it was greater than 100 nM.
With `COc1cc(C)c2[nH]ccc2c1CN1CC[C@H](NC2CC(F)(F)C2)C[C@H]1c1ccc(C(=O)O)cc1` [Example 19, 4-((2S,4S)-4-((3,3-difluorocyclobutyl)amino)-1-((5-methoxy-7-methyl-1H-indol-4-yl)methyl)piperidin-2-yl)benzoic acid], the figures for the IC50 (in experiment [1]; on human C3bBb (setting [2])) were less than 100 nM and less than 10 nM, respectively.
On to `COc1cc(C)c2[nH]ccc2c1CN1CC[C@H](NC23CC(C2)C3)C[C@H]1c1ccc(C(=O)O)cc1` [Example 21, 4-((2S,4S)-4-(bicyclo[1.1.1]pentan-1-ylamino)-1-((5-methoxy-7-methyl-1H-indol-4-yl)methyl)pyiperidin-2-yl)benzoic acid], for which the concentration for half-maximal inhibition (IC50) in experiment [1] is 100 to 200 nM; at human C3bBb (setting [3]), greater than 100 nM.
The corresponding values for `COc1cc(C)c2[nH]ccc2c1CN1CC[C@H](NCC(F)(F)F)C[C@H]1c1ccc(C(=O)O)cc1` (racemic) [Example 14, (+)-trans-4-(1-((5-methoxy-7-methyl-1H-indol-4-yl)methyl)-4-((2,2,2-trifluoroethyl)amino)piperidin-2-yl)benzoic acid] are 100 to 200 nM and 10 to 25 nM.
In the case of `COc1cc(C)c2[nH]ccc2c1CN1CC[C@]2(C[C@H]1c1ccc(C(=O)O)cc1)C[C@@H](OC(F)F)C2` (single isomer, unassigned) [Example 56, 4-((2R,4s,6S)-2-(difluoromethoxy)-7-((5-methoxy-7-methyl-1H-indol-4-yl)methyl)-7-azaspiro[3.5]nonan-6-yl)benzoic acid or 4-((2S,4r,6S)-2-(difluoromethoxy)-7-((5-methoxy-7-methyl-1H-indol-4-yl)methyl)-7-azaspiro[3.5]nonan-6-yl)benzoic acid], the figures for the IC50 (in experiment [1]; at human C3bBb (setting [2])) were less than 100 nM and less than 10 nM, respectively.
For `COc1cc(C)c2[nH]ccc2c1CN1CC[C@]2(C[C@H]1c1ccc(C(=O)O)cc1)C[C@@H](C(F)F)C2` (single isomer, unassigned) [Example 46, 4-((2R,4s,6S)-2-(difluoromethyl)-7-((5-methoxy-7-methyl-1H-indol-4-yl)methyl)-7-azaspiro[3.5]nonan-6-yl)benzoic acid or 4-((2S,4r,6S)-2-(difluoromethyl)-7-((5-methoxy-7-methyl-1H-indol-4-yl)methyl)-7-azaspiro[3.5]nonan-6-yl)benzoic acid], the figures for the IC50 (in experiment [1]; on human C3bBb (setting [2])) were 100 to 200 nM and less than 10 nM, respectively.
For `COc1cc(C)c2[nH]ccc2c1CN1CCN(CC2(F)COC2)C[C@H]1c1ccc(C(=O)O)cc1` [Example 69, (R)-4-(4-((3-fluorooxetan-3-yl)methyl)-1-((5-methoxy-7-methyl-1H-indol-4-yl)methyl)piperazin-2-yl)benzoic acid], in that order: 100 to 200 nM and 50 to 100 nM.
Regarding `COc1cc(C)c2[nH]ccc2c1CN1CC[C@@]2(C[C@H]1c1ccc(C(=O)O)cc1)CC2(F)F` (stereo in doubt) [Example 30, 4-((3R,5S)- or ((3S,5S)-1,1-difluoro-6-((5-methoxy-7-methyl-1H-indol-4-yl)methyl)-6-azaspiro[2.5]octan-5-yl)benzoic acid], the 50% inhibitory concentration (IC50) in experiment [1] was 100 to 200 nM; on human C3bBb (setting [2]), less than 10 nM.
On to `COc1cc(C)c2[nH]ccc2c1CN1CC[C@H](n2cnc(C(F)(F)F)n2)C[C@H]1c1ccc(C(=O)O)cc1` (racemic) [Example 5, (±)-trans-4-(1-((5-methoxy-7-methyl-1H-indol-4-yl)methyl)-4-(3-(trifluoromethyl)-1H-1,2,4-triazol-1-yl)piperidin-2-yl)benzoic acid], for which the IC50 in experiment [1] is greater than 500 nM.
Still for that read-out and setting: for `COc1cc(C)c2[nH]ccc2c1CN1CC[C@H](NCC2(C(F)(F)F)CC2)C[C@H]1c1ccc(C(=O)O)cc1` [Example 27, 4-((2S,4S)-1-((5-methoxy-7-methyl-1H-indol-4-yl)methyl)-4-(((1-(trifluoromethyl)cyclopropyl)methyl)amino)piperidin-2-yl)benzoic acid] the value was 100 to 200 nM; for `COc1cc(C)c2[nH]ccc2c1CN1CC[C@H](C2CC2)C[C@H]1c1ccc(C(=O)O)cc1` [Example 41, 4-((2S,4S)-4-cyclopropyl-1-((5-methoxy-7-methyl-1H-indol-4-yl)methyl)piperidin-2-yl)benzoic acid], 100 to 200 nM; for `COc1cc(C)c2[nH]ccc2c1CN1CC[C@H](n2cc3ccccc3n2)C[C@H]1c1ccc(C(=O)O)cc1` (racemic) [Example 6, (±)-trans-4-(4-(2H-indazol-2-yl)-1-((5-methoxy-7-methyl-1H-indol-4-yl)methyl)piperidin-2-yl)benzoic acid], greater than 500 nM.
